Measurements published in publication PMC6825211 (Nature Communications, 2019).

Key:
[1] = test system: mouse model of liver and intestine injury; design: method as in PMID 27535619; details: cited from earlier work
MST2 = MST2 (Homo sapiens, UniProt Q13188); assay: Biochemical kinase dose response (Suppl. Fig. 2, 5); details: concentrations up to 10 μM
MST1 [2] = target: T1, MST1 (Rattus norvegicus, UniProt A0A8I6A0F8); assay: CETSA assay; format: cell-based; details: 5 μM, 2 h, INS-1E, 55 °C
T1 construct: endogenous in cells; host or cells: INS-1E (rat beta-cell line)
T1 sequence (A0A8I6A0F8 1-487): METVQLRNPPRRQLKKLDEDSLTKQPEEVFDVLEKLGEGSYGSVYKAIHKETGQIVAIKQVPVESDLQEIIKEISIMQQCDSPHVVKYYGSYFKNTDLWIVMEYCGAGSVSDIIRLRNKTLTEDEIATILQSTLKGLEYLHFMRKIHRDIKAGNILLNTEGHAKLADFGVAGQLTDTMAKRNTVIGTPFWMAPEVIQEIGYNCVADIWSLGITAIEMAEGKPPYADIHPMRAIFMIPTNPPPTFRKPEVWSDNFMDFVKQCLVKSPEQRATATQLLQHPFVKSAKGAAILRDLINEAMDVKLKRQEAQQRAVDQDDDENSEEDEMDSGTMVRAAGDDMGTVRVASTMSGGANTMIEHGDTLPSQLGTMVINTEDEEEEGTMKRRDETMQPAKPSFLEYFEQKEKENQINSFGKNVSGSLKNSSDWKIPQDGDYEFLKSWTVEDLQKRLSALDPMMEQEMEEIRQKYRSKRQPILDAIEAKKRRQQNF
Protocol: Thereafter, cells were pelleted at 200 g for 4 min and resuspended in PBS supplemented with phosphatase and protease inhibitor cocktail at the cell density of 3 Mill./100 µl. Each cell suspension was distributed into five 0.2-ml PCR tubes with 100 µl of cell suspension per tube. PCR tubes were heated at their designated temperature (43–55 °C) on a thermal cycler for 3 min, incubated at room temperature for 3 min, and snap-frozen in liquid nitrogen. Cell lysates were prepared by freezing–thawing the samples in liquid nitrogen twice, and soluble MST1 was detected by western blot analysis.

MST1–LATS2 signaling [3] = assay: LATS-BS in vitro luciferase assay (MST1/LATS2 overexpression)
From the text: Therefore a LATS-BS construct has been generated with fusion of YAP fragment and 14-3-3 with N-terminal and C-terminal firefly luciferase fragments (N-luc and C-luc), respectively that assesses LATS kinase activity by measuring the interaction between pS127-YAP and 14-3-3[35] in a MST1–LATS2-phosphorylation-dependent manner (Fig. 4a).
As internal transfection control, pRL-Renilla luciferase control reporter vector (Promega) was co-transfected into each sample. […] Luciferase signal was calculated based on the ratio of luciferase activity of LATS-BS to control reporter vector.

MST1–LATS2 signaling [4] = assay: Western blot of YAP-S127 phosphorylation (MST1/LATS2 overexpression); details: 10 μM, last 24 h
MST1 [5] = target: T2, MST1 (Homo sapiens, UniProt Q13043); assay: Biochemical kinase dose response (Suppl. Fig. 5); details: concentrations up to 10 μM
T2 sequence (Q13043 1-487): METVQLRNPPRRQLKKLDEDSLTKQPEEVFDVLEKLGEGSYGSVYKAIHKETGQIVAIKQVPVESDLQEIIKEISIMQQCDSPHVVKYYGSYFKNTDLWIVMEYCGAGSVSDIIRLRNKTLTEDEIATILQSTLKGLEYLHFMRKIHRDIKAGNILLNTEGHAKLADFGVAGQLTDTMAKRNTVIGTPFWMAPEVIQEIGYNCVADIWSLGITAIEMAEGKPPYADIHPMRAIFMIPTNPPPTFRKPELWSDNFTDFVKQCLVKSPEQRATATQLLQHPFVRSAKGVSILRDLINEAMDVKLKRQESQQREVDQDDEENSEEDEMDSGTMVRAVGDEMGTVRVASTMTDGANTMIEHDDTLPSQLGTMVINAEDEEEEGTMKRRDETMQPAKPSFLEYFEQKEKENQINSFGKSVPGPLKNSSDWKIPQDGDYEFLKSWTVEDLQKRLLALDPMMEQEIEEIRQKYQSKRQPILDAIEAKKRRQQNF

INS-1E cells = assay: Western blot of pMST1, caspase-3/PARP cleavage, PDX1, BIM under diabetogenic conditions; format: cell-based, rat; details: 10 μM, 24 h
Protocol: . pThr183), caspase-3 and PARP cleavage, PDX1, tubulin, and actin were analyzed by western blotting. Representative Western blots and pooled quantitative densitometry analysis are shown from three independent cell line experiments (n = 3). […]; all by Student’s t tests.
. pThr183), caspase-3 and PARP cleavage, and BIM and actin were analyzed by western blotting. Representative Western blots (b) and pooled quantitative densitometry analysis (c) are shown from 3–6 independent culture dishes (n = 3–6). […]; all by Student’s t tests.
Human islets were isolated from eight pancreases of nondiabetic organ donors at PRODO Labs and at Lille University and cultured on extracellular matrix-coated dishes (Novamed, Jerusalem, Israel)[62] or on Biocoat Collagen I coated dishes (#356400, Corning, ME, USA). […] The clonal rat β-cell line INS-1E was kindly provided by Dr. Claes Wollheim, Geneva & Lund University. Human islets were cultured in complete CMRL-1066 (Invitrogen) medium at 5.5 mM glucose, mouse islets and INS-1E cells at complete RPMI-1640 medium at 11.1 mM glucose. […] . Palmitic acid (Sigma) was dissolved at 10 mmol/l in RPMI-1640 medium containing 11% fatty acid–free bovine serum albumin (BSA) (Sigma) under an N2-atmosphere and added to the culture at 0.5 mM[64]. […] . Isolated human islets or INS-1E cells were infected with adenovirus carrying LacZ as control or MST1 or LATS2 (all Vector Biolabs), at a multiplicity of infection of 100 (human islets) or 20 (INS-1E) for 4 h[11]. Adenovirus was subsequently washed off with PBS and replaced by fresh medium with 10% FBS and the respective analysis performed after 48 h post infection.

MST family members = test system: MST family members; design: method as in PMID 22037378; details: cited from earlier work
MST1 [6] = target: T2, MST1; assay: LanthaScreen Eu kinase binding assay (HTS and dose response); design: purchased ThermoFisher; details: 1 μM; positive control
Protocol: A total of 39 hits were selected for 9-point dose response confirmation in triplicate, starting at 1 μM followed by 1:5 serial dilution.
Compounds in 1000× DMSO stock solution were dispensed by using Echo555 liquid dispensing system (Labcyte, CA) to 1536-well microplate (Corning, NY). Kinase buffer A (ThermoFisher, MA) was prepared and added to each well. […] Each reagent was added to the microplate in equal volume.

Sequence of MST2 (Q13188 whole entry, species assumed): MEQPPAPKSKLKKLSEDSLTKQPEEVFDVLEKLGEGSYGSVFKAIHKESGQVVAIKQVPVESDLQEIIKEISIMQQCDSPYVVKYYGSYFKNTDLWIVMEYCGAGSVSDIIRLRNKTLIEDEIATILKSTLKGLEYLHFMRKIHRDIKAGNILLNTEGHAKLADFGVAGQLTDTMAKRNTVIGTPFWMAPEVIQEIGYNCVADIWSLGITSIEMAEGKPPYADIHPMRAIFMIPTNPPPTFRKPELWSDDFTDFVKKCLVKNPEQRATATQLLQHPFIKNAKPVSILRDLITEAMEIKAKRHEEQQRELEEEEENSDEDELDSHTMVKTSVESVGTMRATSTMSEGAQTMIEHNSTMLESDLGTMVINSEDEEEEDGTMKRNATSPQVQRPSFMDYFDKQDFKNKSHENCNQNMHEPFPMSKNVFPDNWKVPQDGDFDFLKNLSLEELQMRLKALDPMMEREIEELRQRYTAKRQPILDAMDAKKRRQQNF

CN1C(=O)c2sccc2N(C)c2nc(Nc3ccc(S(N)(=O)=O)cc3)ncc21 [XMU-MP-1]
effect in mouse model of liver and intestine injury [1]: promotes tissue repair and regeneration

C=CC(=O)Nc1cc2c(Nc3ccc(F)c(Cl)c3)ncnc2cc1OCCCN1CCOCC1 [canertinib]
inhibition of MST2 (MST2): no appreciable inhibition
thermal stabilization of MST1 in intact cells (MST1 [2]): degradation occurred at the same condition
MST1/LATS2-induced luciferase activity (LATS-BS) (MST1–LATS2 signaling [3]; 10 μM, last 24 h): had no inhibitory effect
Firefly/Renilla x1000 (MEAN) (MST1–LATS2 signaling [3]; L2/Mst1 overexpression + 10 μM compound, mean of six dishes): 27.5257
MST1/LATS2-induced YAP-S127 phosphorylation (MST1–LATS2 signaling [4]): had no inhibitory effect
inhibition of MST1 (MST1 [5]): no appreciable inhibition
cleaved caspase-3, cleaved PARP, and BIM under basal conditions (INS-1E cells): significant stimulatory effect
mitochondrial BIM induction under diabetic conditions (INS-1E cells; HG/Pal): but not the EGFR inhibitor canertinib significantly reduced
stress-induced MST1 activation and caspase-3 and PARP cleavage (INS-1E cells; HG/Pal): ineffective
activity on MST family members (MST family members): without MST family inhibitory activity

CN[C@@H]1C[C@H]2O[C@@](C)([C@@H]1OC)n1c3ccccc3c3c4c(c5c6ccccc6n2c5c31)C(=O)NC4 [staurosporine]
inhibition at 1 µM (MST1 [6]): 100%
